In patent US20260070945A1, “MACROCYCLIC IMMUNOMODULATORS” (Bristol-Myers Squibb Company, priority 2022, published 2026):
*1 amine or outer side, *2 acyl side, *3 side chain or, on linkers, in order; H or OH if unused. Where a SMILES comes first, the peptide text is derived from it. Bridges are numbered along the chain shown (N, C = ends). [ ]: non-standard residue; d: D form. The star is where a group is joined. ξ: configuration not given here. Phe(3-CF3) = N[C@@H](Cc1cccc(C(F)(F)F)c1)C(=O)O; Phe(4-COOH) = N[C@@H](Cc1ccc(C(=O)O)cc1)C(=O)O; Bip = N[C@@H](Cc1ccc(-c2ccccc2)cc1)C(=O)O; NH(CH2)14COOH = O=C(O)CCCCCCCCCCCCCCN*; Phe(3-Me) = Cc1cccc(C[C@H](N)C(=O)O)c1; γGlu = O=C(O)[C@H](CCC(=O)[*:2])N[*:1]; Val(3-OH) = CC(C)(O)[C@H](N)C(=O)O; aIle = CC[C@@H](C)[C@H](N)C(=O)O; hArg = N=C(N)NCCCC[C@H](N)C(=O)O; hhGln = NC(=O)CCCC[C@H](N)C(=O)O; Aad = N[C@@H](CCCC(=O)O)C(=O)O; Cha = N[C@@H](CC1CCCCC1)C(=O)O; Cit = NC(=O)NCCC[C@H](N)C(=O)O; Thr(3ξ) = CC(O)[C@H](N)C(=O)O; 12Ado = NCCCCCCCCCCCC(=O)O; dDab = NCC[C@@H](N)C(=O)O; Carboxymethyl = O=C(O)C*; NMeA = CN[C@@H](C)C(=O)O; Orn = NCCC[C@H](N)C(=O)O; Aun = NCCCCCCCCCCC(=O)O; Dab = NCC[C@H](N)C(=O)O; AEEA = NCCOCCOCC(=O)O

target: T1, PD-1/PD-L1 interaction (PE-labeled human PD-L1-Ig binding to Jurkat cell line over-expressing human PD-1) (Homo sapiens, UniProt Q15116); test: Jurkat-PD-1 Cell Binding High-Content Screening Assay (CBA); details: Jurkat-hPD-1 cells, PE-labeled PD-L1-Ig 20 nM final; read-out: Jurkat HPD1 PDL1 IC50
T1 construct: expressed in transfected cells; host or cells: Jurkat
Outline: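 Cells 8×10^3/well, DMEM + 10% FCS; cpd 2 h, 37 °C; PE–PD-L1-Ig 20 nM final, 1 h; PFA fix + Hoechst 33342, 3× dPBS wash; high-content imager.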

T1 sequence (Q15116 25-288): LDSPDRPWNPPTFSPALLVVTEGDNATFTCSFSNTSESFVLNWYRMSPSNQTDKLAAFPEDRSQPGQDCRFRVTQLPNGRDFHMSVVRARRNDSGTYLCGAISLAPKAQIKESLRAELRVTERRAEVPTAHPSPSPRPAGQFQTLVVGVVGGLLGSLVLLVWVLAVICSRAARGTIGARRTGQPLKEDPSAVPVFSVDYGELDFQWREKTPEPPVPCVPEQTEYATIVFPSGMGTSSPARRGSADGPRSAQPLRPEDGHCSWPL

IC50	SMILES
8.9 nM	CC(C)C[C@@H]1NC(=O)[C@H](Cc2c[nH]c3ccccc23)NC(=O)[C@H](CC(=O)O)NC(=O)[C@H](Cc2ccc(C(=O)O)cc2)NC(=O)[C@H](Cc2ccc(OCC(=O)O)cc2)NC(=O)CSC[C@@H](C(=O)N[C@@H](CCCN)C(=O)NCCOCCOCC(=O)NCCCCCCCCCCC(=O)O)NC(=O)[C@H](CCCCC(N)=O)NC(=O)[C@H](C(C)C)NC(=O)[C@H](CC2CCCCC2)NC(=O)[C@H](CCN)NC(=O)[C@@H](CC(C)C)NC(=O)[C@H](C)N(C)C(=O)[C@H](C(C)C)NC(=O)[C@H](Cc2ccc(-c3ccccc3)cc2)NC1=O [Example 2128] ({CH2CO}-Y(Carboxymethyl)[Phe(4-COOH)]DWL[Bip]V[NMeA][dL][Dab][Cha]V[hhGln]C[Orn][AEEA][Aun]-OH; thioether N-14)
46.5 nM	CC(C)C[C@@H]1NC(=O)[C@H](Cc2c[nH]c3ccccc23)NC(=O)[C@H](CC(=O)O)NC(=O)[C@H](Cc2ccc(OCC(=O)O)cc2)NC(=O)[C@H](Cc2ccc(OCC(=O)O)cc2)NC(=O)CSC[C@@H](C(=O)NCCOCCOCC(=O)NCCCCCCCCCCC(=O)O)NC(=O)[C@H](CO)NC(=O)[C@H](Cc2cnc[nH]2)NC(=O)[C@H](CC2CCCCC2)NC(=O)[C@H](CCN)NC(=O)[C@@H](CC(C)C)NC(=O)[C@H](C)N(C)C(=O)[C@H](C(C)C)NC(=O)[C@H](Cc2ccc(-c3ccccc3)cc2)NC1=O [Example 2445] ({CH2CO}-Y(Carboxymethyl)Y(Carboxymethyl)DWL[Bip]V[NMeA][dL][Dab][Cha]HSC[AEEA][Aun]-OH; thioether N-14)
27.9 nM	Cc1cccc(C[C@@H]2NC(=O)[C@H](CC(=O)O)NC(=O)[C@H](Cc3ccc(OCC(=O)O)cc3)NC(=O)[C@H](C(C)O)NC(=O)CSC[C@@H](C(=O)N[C@@H](CCN)C(=O)NCCCCCCCCCCC(=O)O)NC(=O)[C@H](C(C)O)NC(=O)[C@H](C(C)C)NC(=O)[C@H](CC3CCCCC3)NC(=O)[C@H](CCN)NC(=O)[C@@H](CC(C)C)NC(=O)[C@H](C)N(C)C(=O)[C@H](Cc3ccc(OCC(=O)O)cc3)NC(=O)[C@H](Cc3ccc(-c4ccccc4)cc3)NC(=O)[C@H](C(C)C)NC2=O)c1 (stereo partly drawn) [Example 2309] ({CH2CO}-[Thr(3ξ)]Y(Carboxymethyl)D[Phe(3-Me)]V[Bip]Y(Carboxymethyl)[NMeA][dL][Dab][Cha]V[Thr(3ξ)]C[Dab][Aun]-OH; thioether N-14)
49.8 nM	CC[C@@H](C)[C@@H]1NC(=O)[C@H](Cc2ccc(-c3ccccc3)cc2)NC(=O)[C@H](C(C)C)NC(=O)[C@H](Cc2c[nH]c3ccccc23)NC(=O)[C@H](CC(=O)O)NC(=O)[C@H](Cc2ccc(O)cc2)NC(=O)[C@H](CCCNC(N)=O)NC(=O)CSC[C@@H](C(=O)N[C@H](CC(N)=O)C(=O)NCCOCCOCC(=O)N[C@@H](CCC(=O)NCCOCCOCC(=O)N[C@@H](CCC(=O)NCCOCCOCC(=O)N[C@@H](CCCN)C(=O)NCCCCCCCCCCC(=O)O)C(=O)O)C(=O)O)NC(=O)[C@H](CO)NC(=O)[C@H](C(C)C)NC(=O)[C@H](CC2CCCCC2)NC(=O)[C@H](CC(N)=O)NC(=O)[C@@H](CC(C)C)NC(=O)[C@H](C)N(C)C1=O [Example 2025] ({CH2CO}-[Cit]YDWV[Bip][aIle][NMeA][dL]N[Cha]VSC[dN][AEEA][γGlu][AEEA][γGlu][AEEA][Orn][Aun]-OH; thioether N-14)
32.1 nM	Cc1cccc(C[C@@H]2NC(=O)[C@H](CC(=O)O)NC(=O)[C@H](Cc3ccc(OCC(=O)O)cc3)NC(=O)[C@H](C(C)O)NC(=O)CSC[C@@H](C(=O)N[C@@H](CCN)C(=O)NCCOCCOCC(=O)NCCCCCCCCCCC(=O)O)NC(=O)[C@H](CCC(=O)O)NC(=O)[C@H](C(C)(C)O)NC(=O)[C@H](CC3CCCCC3)NC(=O)[C@H](CCN)NC(=O)[C@@H](CC(C)C)NC(=O)[C@H](C)N(C)C(=O)[C@H](Cc3ccc(OCC(=O)O)cc3)NC(=O)[C@H](Cc3ccc(-c4ccccc4)cc3)NC(=O)[C@H](Cc3ccc(C(=O)O)cc3)NC2=O)c1 (stereo partly drawn) [Example 2473] ({CH2CO}-[Thr(3ξ)]Y(Carboxymethyl)D[Phe(3-Me)][Phe(4-COOH)][Bip]Y(Carboxymethyl)[NMeA][dL][Dab][Cha][Val(3-OH)]EC[Dab][AEEA][Aun]-OH; thioether N-14)
19.9 nM	CC(C)C[C@@H]1NC(=O)[C@H](Cc2c[nH]c3ccccc23)NC(=O)[C@H](CC(=O)O)NC(=O)[C@H](Cc2ccc(C(=O)O)cc2)NC(=O)[C@H](Cc2ccc(OCC(=O)O)cc2)NC(=O)CSC[C@@H](C(=O)N[C@@H](CCCN)C(=O)NCCOCCOCC(=O)NCCCCCCCCCCC(=O)O)NC(=O)[C@H](CCCCN)NC(=O)[C@H](C(C)C)NC(=O)[C@H](CC2CCCCC2)NC(=O)[C@H](CCCC(=O)O)NC(=O)[C@@H](CC(C)C)NC(=O)[C@H](C)N(C)C(=O)[C@H](C(C)C)NC(=O)[C@H](Cc2ccc(-c3ccccc3)cc2)NC1=O [Example 2152] ({CH2CO}-Y(Carboxymethyl)[Phe(4-COOH)]DWL[Bip]V[NMeA][dL][Aad][Cha]VKC[Orn][AEEA][Aun]-OH; thioether N-14)
123 nM	CC(C)C[C@@H]1NC(=O)[C@H](Cc2c[nH]c3ccccc23)NC(=O)[C@H](CC(=O)O)NC(=O)[C@H](Cc2ccc(C(=O)O)cc2)NC(=O)[C@H](CCCCNC(=N)N)NC(=O)CSC[C@@H](C(=O)N[C@@H](C)C(=O)N[C@@H](CCN)C(=O)NCCCCCCCCCCCCCCC(=O)O)NC(=O)[C@H](CO)NC(=O)[C@H](C(C)C)NC(=O)[C@H](CC2CCCCC2)NC(=O)[C@H](CCN)NC(=O)[C@@H](CC(C)C)NC(=O)[C@H](C)N(C)C(=O)[C@H](C(C)C)NC(=O)[C@H](Cc2ccc(-c3ccccc3)cc2)NC1=O [Example 2001] ({CH2CO}-[hArg][Phe(4-COOH)]DWL[Bip]V[NMeA][dL][Dab][Cha]VSCA[Dab]-{NH(CH2)14COOH}; thioether N-14)
9.8 nM	CC(C)C[C@@H]1NC(=O)[C@H](Cc2c[nH]c3ccccc23)NC(=O)[C@H](CC(=O)O)NC(=O)[C@H](Cc2ccc(C(=O)O)cc2)NC(=O)[C@H](Cc2ccc(OCC(=O)O)cc2)NC(=O)CSC[C@@H](C(=O)N[C@@H](CCCCN)C(=O)NCCCCCCCCCCC(=O)O)NC(=O)[C@H](CCCNC(N)=O)NC(=O)[C@H](C(C)C)NC(=O)[C@H](CC2CCCCC2)NC(=O)[C@H](CCN)NC(=O)[C@@H](CC(C)C)NC(=O)[C@H](C)N(C)C(=O)[C@H](C(C)C)NC(=O)[C@H](Cc2ccc(-c3ccccc3)cc2)NC1=O [Example 1099] ({CH2CO}-Y(Carboxymethyl)[Phe(4-COOH)]DWL[Bip]V[NMeA][dL][Dab][Cha]V[Cit]CK[Aun]-OH; thioether N-14)
227 nM	CC(C)C[C@H]1NC(=O)[C@H](C)N(C)C(=O)[C@H](Cc2ccc(OCC(=O)O)cc2)NC(=O)[C@H](Cc2ccc(-c3ccccc3)cc2)NC(=O)[C@H](Cc2ccc(OCC(=O)O)cc2)NC(=O)[C@H](Cc2c[nH]c3ccccc23)NC(=O)[C@H](CC(=O)O)NC(=O)[C@H](Cc2ccc(OCC(=O)O)cc2)NC(=O)[C@H]([C@@H](C)O)NC(=O)CSC[C@@H](C(=O)N[C@@H](CCCN)C(=O)NCCOCCOCC(=O)NCCCCCCCCCCC(=O)O)NC(=O)[C@H](CO)NC(=O)[C@H](C(C)C)NC(=O)[C@H](CC2CCCCC2)NC(=O)[C@H](CC(N)=O)NC1=O [Example 1389] ({CH2CO}-TY(Carboxymethyl)DWY(Carboxymethyl)[Bip]Y(Carboxymethyl)[NMeA][dL]N[Cha]VSC[Orn][AEEA][Aun]-OH; thioether N-14)

same assay, conditions: PE-labeled PD-L1-Ig 20 nM final, Jurkat-hPD-1 cells; read-out: Jurkat HPD1 PDL1 IC50

IC50	SMILES
257 nM	Cc1cccc(C[C@@H]2NC(=O)[C@H](CC(=O)O)NC(=O)[C@H](Cc3ccc(OCC(=O)O)cc3)NC(=O)[C@H]([C@@H](C)O)NC(=O)CSC[C@@H](C(=O)N[C@@H](CCC(=O)O)C(=O)NCCOCCOCC(=O)NCCCCCCCCCCCC(=O)O)NC(=O)CNC(=O)[C@H](C(C)C)NC(=O)[C@H](CC3CCCCC3)NC(=O)[C@@H](CCC(=O)O)NC(=O)[C@@H](CC(C)C)NC(=O)[C@H](C)N(C)C(=O)[C@H](Cc3ccc(OCC(=O)O)cc3)NC(=O)[C@H](Cc3ccc(-c4ccccc4)cc3)NC(=O)[C@H](Cc3ccc(OCC(=O)O)cc3)NC2=O)c1 [Example 2686] ({CH2CO}-TY(Carboxymethyl)D[Phe(3-Me)]Y(Carboxymethyl)[Bip]Y(Carboxymethyl)[NMeA][dL][dE][Cha]VGCE[AEEA][12Ado]-OH; thioether N-14)
161 nM	CC(=O)NCCCC[C@@H]1NC(=O)[C@H](C(C)(C)O)NC(=O)[C@H](CC2CCCCC2)NC(=O)[C@H](CCN)NC(=O)[C@@H](CC(C)C)NC(=O)[C@H](C)N(C)C(=O)[C@H](CCC(N)=O)NC(=O)[C@H](Cc2ccc(-c3ccccc3)cc2)NC(=O)[C@H](Cc2ccc(C(=O)O)cc2)NC(=O)[C@H](Cc2cccc(C(F)(F)F)c2)NC(=O)[C@H](CC(=O)O)NC(=O)[C@H](Cc2ccc(OCC(=O)O)cc2)NC(=O)[C@H](Cc2ccc(OCC(=O)O)cc2)NC(=O)CSC[C@@H](C(=O)N[C@H](CCN)C(=O)NCCOCCOCC(=O)N[C@@H](CO)C(=O)NCCOCCOCC(=O)N[C@@H](CCC(=O)NCCCCCCCCCCCCCCC(=O)O)C(=O)O)NC1=O [Example 2650] ({CH2CO}-Y(Carboxymethyl)Y(Carboxymethyl)D[Phe(3-CF3)][Phe(4-COOH)][Bip]Q[NMeA][dL][Dab][Cha][Val(3-OH)]K(Ac)C[dDab][AEEA]S[AEEA]E(NH(CH2)14COOH)-OH; thioether N-14)
20.7 nM	CC(C)C[C@@H]1NC(=O)[C@H](Cc2c[nH]c3ccccc23)NC(=O)[C@H](CC(=O)O)NC(=O)[C@H](Cc2ccc(OCC(=O)O)cc2)NC(=O)[C@H](Cc2ccc(OCC(=O)O)cc2)NC(=O)CSC[C@@H](C(=O)N[C@@H](CCN)C(=O)NCCOCCOCC(=O)NCCCCCCCCCCC(=O)O)NC(=O)[C@H](CCC(=O)O)NC(=O)[C@H](C(C)(C)O)NC(=O)[C@H](CC2CCCCC2)NC(=O)[C@H](CCN)NC(=O)[C@@H](CC(C)C)NC(=O)[C@H](C)N(C)C(=O)[C@H](CCC(N)=O)NC(=O)[C@H](Cc2ccc(-c3ccccc3)cc2)NC1=O [Example 2516] ({CH2CO}-Y(Carboxymethyl)Y(Carboxymethyl)DWL[Bip]Q[NMeA][dL][Dab][Cha][Val(3-OH)]EC[Dab][AEEA][Aun]-OH; thioether N-14)
